According to the supplement of paper PMC10307832:

Tests used:
Test in all cases: relative viability (nuclei count vs DMSO), 5 days (fraction); higher = more cells survive
[1] = tested on: ABC-1
In short: (§1)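 After 5 days of treatment, lung cancer cells in 1536-well plates were fixed and stained in a single step (final 0.05% Triton X-100, 1% formaldehyde, 1 ug/ml Hoechst) and their nuclei counted on 4× images. Treatment had been applied by pin tool the day after seeding as one drug alone or as a fixed anchor-drug dose with five library-drug doses (not always all listed) in √10 steps. Relative viability is the nuclei count of treated wells divided by that of vehicle wells, and values are medians of duplicate plates.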

[2] = tested on: COR-L 105
In short: as §1

[3] = tested on: NCI-H3122
In short: as §1

[4] = tested on: NCI-H1666
In short: as §1

[5] = tested on: NCI-H727
In short: as §1

[6] = tested on: NCI-H2170
In short: as §1

[7] = tested on: PC-14
In short: as §1

[8] = tested on: NCI-H460
In short: as §1

[9] = tested on: LK-2
In short: as §1

[10] = tested on: LOU-NH91
In short: as §1

[11] = tested on: NCI-H1650
In short: as §1

[12] = tested on: NCI-H1437
In short: as §1

[13] = tested on: CAL-12T
In short: as §1

[14] = tested on: 201T
In short: as §1

[15] = tested on: NCI-H661
In short: as §1

[16] = tested on: BEN
In short: as §1

[17] = tested on: EKVX
In short: as §1

[18] = tested on: HARA
In short: as §1

[19] = tested on: NCI-H2009
In short: as §1

[20] = tested on: NCI-H441
In short: as §1

[21] = tested on: HCC-366
In short: as §1

CCN(CC)CCCCNc1ncc2cc(-c3cc(OC)cc(OC)c3)c(NC(=O)NC(C)(C)C)nc2n1 + C[C@@H](Oc1cc(-c2cnn(C3CCNCC3)c2)cnc1N)c1c(Cl)ccc(F)c1Cl [Crizotinib] (partner 1 µM)
relative viability ([1]; first compound 0.01 µM): 1.53 | relative viability ([1]; first compound 0.03162 µM): 1.34 | relative viability ([1]; first compound 0.1 µM): 1.18 | relative viability ([1]; first compound 0.3162 µM): 1.09 | relative viability ([1]; first compound 1 µM): 0.905 | relative viability ([2]; first compound 0.01 µM): 0.795 | relative viability ([2]; first compound 0.03162 µM): 0.796 | relative viability ([2]; first compound 0.1 µM): 0.887 | relative viability ([2]; first compound 0.3162 µM): 0.777 | relative viability ([2]; first compound 1 µM): 0.658 | relative viability ([3]; first compound 0.01 µM): 0.273 | relative viability ([3]; first compound 0.03162 µM): 0.282 | relative viability ([3]; first compound 0.1 µM): 0.317 | relative viability ([3]; first compound 0.3162 µM): 0.291 | relative viability ([3]; first compound 1 µM): 0.279 | relative viability ([4]; first compound 0.01 µM): 1.17 | relative viability ([4]; first compound 0.03162 µM): 0.985 | relative viability ([4]; first compound 0.1 µM): 0.895 | relative viability ([4]; first compound 0.3162 µM): 1.02 | relative viability ([4]; first compound 1 µM): 1.09 | relative viability ([5]; first compound 0.01 µM): 0.829 | relative viability ([5]; first compound 0.03162 µM): 0.923 | relative viability ([5]; first compound 0.1 µM): 1.03 | relative viability ([5]; first compound 0.3162 µM): 1.06 | relative viability ([5]; first compound 1 µM): 0.837 | relative viability ([6]; first compound 0.01 µM): 1.35 | relative viability ([6]; first compound 0.03162 µM): 1.34 | relative viability ([6]; first compound 0.1 µM): 1.32 | relative viability ([6]; first compound 0.3162 µM): 1.27 | relative viability ([6]; first compound 1 µM): 1.16 | relative viability ([7]; first compound 0.01 µM): 0.916 | relative viability ([7]; first compound 0.03162 µM): 0.875 | relative viability ([7]; first compound 0.1 µM): 1.02 | relative viability ([7]; first compound 0.3162 µM): 1.06 | relative viability ([7]; first compound 1 µM): 0.904 | relative viability ([8]; first compound 0.01 µM): 1.15 | relative viability ([8]; first compound 0.03162 µM): 0.934 | relative viability ([8]; first compound 0.1 µM): 1.36 | relative viability ([8]; first compound 0.3162 µM): 1.07 | relative viability ([8]; first compound 1 µM): 0.797 | relative viability ([9]; first compound 0.01 µM): 0.235 | relative viability ([9]; first compound 0.03162 µM): 0.25 | relative viability ([9]; first compound 0.1 µM): 0.231 | relative viability ([9]; first compound 0.3162 µM): 0.246 | relative viability ([9]; first compound 1 µM): 0.258 | relative viability ([10]; first compound 0.01 µM): 0.733 | relative viability ([10]; first compound 0.03162 µM): 0.723 | relative viability ([10]; first compound 0.1 µM): 0.776 | relative viability ([10]; first compound 0.3162 µM): 0.747 | relative viability ([10]; first compound 1 µM): 0.725 | relative viability ([11]; first compound 0.01 µM): 1.03 | relative viability ([11]; first compound 0.03162 µM): 0.989 | relative viability ([11]; first compound 0.1 µM): 0.902 | relative viability ([11]; first compound 0.3162 µM): 1.02 | relative viability ([11]; first compound 1 µM): 0.698 | relative viability ([12]; first compound 0.01 µM): 1.12 | relative viability ([12]; first compound 0.03162 µM): 0.993 | relative viability ([12]; first compound 0.1 µM): 0.987 | relative viability ([12]; first compound 0.3162 µM): 1.16 | relative viability ([12]; first compound 1 µM): 0.756 | relative viability ([13]; first compound 0.01 µM): 0.809 | relative viability ([13]; first compound 0.03162 µM): 0.612 | relative viability ([13]; first compound 0.1 µM): 0.553 | relative viability ([13]; first compound 0.3162 µM): 0.666 | relative viability ([13]; first compound 1 µM): 0.533 | relative viability ([14]; first compound 0.01 µM): 1.06 | relative viability ([14]; first compound 0.03162 µM): 1.09 | relative viability ([14]; first compound 0.1 µM): 1.06 | relative viability ([14]; first compound 0.3162 µM): 1.05 | relative viability ([14]; first compound 1 µM): 1.03 | relative viability ([15]; first compound 0.03162 µM): 1.03 | relative viability ([15]; first compound 0.1 µM): 0.972 | relative viability ([15]; first compound 0.3162 µM): 1.04 | relative viability ([15]; first compound 1 µM): 1.17 | relative viability ([16]; first compound 0.01 µM): 1.05 | relative viability ([16]; first compound 0.03162 µM): 0.85 | relative viability ([16]; first compound 0.1 µM): 0.867 | relative viability ([16]; first compound 0.3162 µM): 0.835 | relative viability ([16]; first compound 1 µM): 0.699 | relative viability ([17]; first compound 0.01 µM): 1.21 | relative viability ([17]; first compound 0.03162 µM): 0.924 | relative viability ([17]; first compound 0.1 µM): 1.04 | relative viability ([17]; first compound 0.3162 µM): 0.841 | relative viability ([17]; first compound 1 µM): 0.664 | relative viability ([18]; first compound 0.01 µM): 1.19 | relative viability ([18]; first compound 0.03162 µM): 1.03 | relative viability ([18]; first compound 0.1 µM): 1.26 | relative viability ([18]; first compound 0.3162 µM): 1.17 | relative viability ([18]; first compound 1 µM): 0.816 | relative viability ([19]; first compound 0.01 µM): 1.1 | relative viability ([19]; first compound 0.03162 µM): 1.08 | relative viability ([19]; first compound 0.1 µM): 1.13 | relative viability ([19]; first compound 0.3162 µM): 1.11 | relative viability ([19]; first compound 1 µM): 0.953 | relative viability ([20]; first compound 0.01 µM): 0.676 | relative viability ([20]; first compound 0.03162 µM): 0.897 | relative viability ([20]; first compound 0.1 µM): 0.73 | relative viability ([20]; first compound 0.3162 µM): 0.886 | relative viability ([20]; first compound 1 µM): 0.762 | relative viability ([21]; first compound 0.01 µM): 0.632 | relative viability ([21]; first compound 0.03162 µM): 0.924 | relative viability ([21]; first compound 0.1 µM): 0.947 | relative viability ([21]; first compound 0.3162 µM): 0.741 | relative viability ([21]; first compound 1 µM): 0.512
